Laboratory results from patent US10918648B2, “Estrogen receptor modulator combinations” (The Regents of the University of California, priority 2016, dated 2021).

What was measured:
estrogen receptor-alpha = molecular target: T1, estrogen receptor-alpha (Homo sapiens, UniProt P03372); test: ER down-regulation, Western immunoblot of ERα protein in MCF-7 cells; type: cell-based; conditions: for estrogen receptor-alpha expression (ERα protein levels, Western immunoblot): 1 μM or 10 μM, 48 hrs, in the presence of 1 nM estradiol, FIG. 3A
T1 construct: MCF-7 breast cancer cells with high expression of ERα protein were treated with; endogenous in cells; host or cells: MCF-7 human breast cancer cells
T1 sequence (P03372 1-595): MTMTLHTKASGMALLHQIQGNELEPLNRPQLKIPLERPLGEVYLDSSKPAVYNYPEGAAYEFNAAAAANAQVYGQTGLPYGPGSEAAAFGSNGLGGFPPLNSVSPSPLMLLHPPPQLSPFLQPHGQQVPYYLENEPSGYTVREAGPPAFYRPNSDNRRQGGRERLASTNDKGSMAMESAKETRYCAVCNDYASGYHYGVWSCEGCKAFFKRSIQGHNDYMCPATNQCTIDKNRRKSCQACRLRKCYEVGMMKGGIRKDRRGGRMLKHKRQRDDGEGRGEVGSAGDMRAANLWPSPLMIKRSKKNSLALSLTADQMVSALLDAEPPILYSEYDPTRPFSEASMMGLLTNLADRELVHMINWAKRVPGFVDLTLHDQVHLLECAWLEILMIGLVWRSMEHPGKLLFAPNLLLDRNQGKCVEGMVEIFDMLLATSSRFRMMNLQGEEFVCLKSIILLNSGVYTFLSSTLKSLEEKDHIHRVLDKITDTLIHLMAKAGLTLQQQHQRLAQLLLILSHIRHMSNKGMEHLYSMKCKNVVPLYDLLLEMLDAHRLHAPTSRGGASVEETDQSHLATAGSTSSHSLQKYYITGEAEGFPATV
Experimental: MCF-7 breast cancer cells were maintained in estrogen-free conditions 48 h before experiments as described above. Cells were then incubated with vehicle control or either 1 μM or 10 μM antiestrogens in the presence of 1 nM estradiol-1713 for 48 hrs. After lysis, total cell proteins were resolved by 4-15% SDS-PAGE, transferred to polyvinylidene difluoride membranes and probed with mouse monoclonal antibody directed against estrogen receptor-alpha (Assay Designs, #SRA1010). Membranes were stripped and re-probed with Ribosomal Protein L13A (Santa Cruz Biotechnology, C11) as a loading control (45).
Fulvestrant (Faslodex®) has been characterized as a selective ERα downregulator and a pure anti-estrogen. Fulvestrant inhibits the transcriptional response to estrogen stimulation and induces the degradation of estrogen receptor proteins (46,47). […] One problem with fulvestrant is that the drug requires intramuscular injection and may not achieve optimal antitumor effects due to the limited doses that can be administered by this drug delivery method. […] MCF-7 breast cancer cells with high expression of ERα protein were treated with estradiol-170 and either 1 μM or 10 μM concentrations of JD128 and JD140 for 48 hours. […] MCF-7 breast cancer cells were estrogen-deprived for 48 hrs, then treated with 1 nM estradiol-170 (E2) or antiestrogens JD128 (128) or JD140 (140) at 1 μM or 10 μM concentrations in the presence of 1 nM estradiol-170. After 48 hrs, PAGE and immunoblotting was performed with antibody directed to anti-ERα (SRA1010) and anti-RPL13A for a loading control.
ER down-regulation: To determine if selected compounds can down-regulate ER protein, we treated cells for 24-48 hrs in vitro with candidate compounds at varying doses. Then, cells were disrupted and prepared for PAGE and Western immunoblots using anti-ERα antibodies (see FIG. 6A). […] Those ERDs with optimal activity in down-regulating ER were investigated further in the chemistry laboratory to further refine and develop such agents. […]

[1] = system: Tamoxifen-resistant human MCF-7 breast cancer cells; test: Endocrine-resistant breast cancer cell proliferation in vitro; type: cell-based; conditions: 72 hrs; 50 nM Palbociclib, 10 nM S128, or both; P<0.001 vs control and 100 nM tamoxifen; FIG. 10
Experimental: Tamoxifen-resistant human MCF-7 breast cancer cells were treated in vitro with control vehicle (CON), 100 nM tamoxifen (TAM), 50 nM Palbociclib (Pb) or 10 nM S128 or with Palbociclib in combination with S128 (S128+Pb) over 72 hrs. […] (FIG. 10)

cyclin D1 = test: Cyclin D1 expression, Western immunoblot in MCF-7 cells; type: cell-based, human; conditions: 24 hrs, 10% FBS, 1 μM and 10 μM, FIG. 7B
Experimental: FIG. 7B. […] Western immunoblot of cyclin D1 after treating MCF-7 cells 24 hrs with 10% FBS and 1 μM and 10 μM doses of JD105, JD128 and JD140. Refer to FIG. S4 methods and previous reports (20).
Next, SERD compounds developed in our laboratory were tested for a capability to suppress the expression of cyclin D1 in ERα-positive human breast cancer cells MCF-7 which were used to validate the activity of other hormonal agents previously (see 20) (FIG. 7B).
Gel electrophoresis and immunoblotting: Breast and lung tumor cells were treated in phenol-red free RPMI1640/DMEM with 5% DCC-FBS (26). After selected treatments cells were homogenized in the presence of protease inhibitors using RIPA buffer (Thermo Scientific). All procedures were performed in ice, lysates were centrifuged and protein concentration quantified in the supernatants using a Thermo Scientific® BCA protein assay kit. Approximately 20-60 μg of total protein were heated in the presence of Laemmli sample buffer (Biorad) to 100° C. for 10 min and loaded it on a gradient TGX gel 4-15% (Biorad). Gels were transferred to PVDF membranes for immunoblotting. Membranes were blocked either with 5% milk in Tris Buffer Saline with 0.1% Tween 20 or protein-free blocking solution (Thermo Scientific). […]

| SMILES | ER protein levels (Western immunoblot) (estrogen receptor-alpha; 24 hours, 10, 100 and 1000 nM, FIG. 6A) | endocrine-resistant breast cancer cell proliferation [1] | estrogen receptor-alpha expression (ERα protein levels, Western immunoblot) (estrogen receptor-alpha) | cyclin D1 expression (cyclin D1) |
| --- | --- | --- | --- | --- |
| C[C@]12C[C@H](Oc3ccc(N)cc3)[C@@H]3c4ccc(O)cc4CC[C@H]3[C@@H]1CC[C@@H]2O [JD105, (8S,9S,11S,13S,14S,17S)-11-(4-aminophenoxy)-13-methyl-7,8,9,11,12,13,14,15,16,17-decahydro-6H-cyclopenta[a]phenanthrene-3,17-diol] | reduces ER protein levels | – | – | – |
| C[C@]12C[C@H](Oc3ccc(N)c(C(F)(F)F)c3)[C@@H]3c4ccc(O)cc4CC[C@H]3[C@@H]1CC[C@@H]2O [JD128, (8S,9S,11S,13S,14S,17S)-11-(4-Amino-3-(trifluoromethyl)phenoxy)-13-methyl-7,8,9,11,12,13,14,15,16,17-decahydro-6H-cyclopenta[a]phenanthrene-3,17-diol] | – | significantly different from control | greatest effect at suppressing estrogen receptor-alpha expression | down-regulates cyclin D1 |
| C[C@]12C[C@H](Oc3ccc(NC(=O)CCCCN4CCCCC4)c(F)c3)[C@@H]3c4ccc(O)cc4CC[C@H]3[C@@H]1CC[C@@H]2O [JD140, N-(4-(((8S,9S,11S,13S,14S,17S)-3,17-Dihydroxy-13-methyl-7,8,9,11,12,13,14,15,16,17-deca-hydro-6H-cyclopenta[a]phenanthren-11-yl)oxy)-2-fluorophenyl)-5-(piperidin-1-yl)pentan-amide] | – | – | down-regulated | – |
